Data: patent US7390783B2, “Charged phospholipid compositions and methods for their use” (Ottawa Heart Institute Research Corporation, priority 2000, dated 2008)

Key:
[1] = target: T1, lecithin:cholesterol acyltransferase (LCAT) (Oryctolagus cuniculus, UniProt P53761); experiment: Plasma cholesterol esterification by LCAT after injection of PC or PI; format: in vivo, rabbit
T1 construct: endogenous LCAT activity is reduced to about 18% that of normal; from tissue; host or cells: plasma of PI- or PC-injected rabbits
T1 sequence (P53761 25-440): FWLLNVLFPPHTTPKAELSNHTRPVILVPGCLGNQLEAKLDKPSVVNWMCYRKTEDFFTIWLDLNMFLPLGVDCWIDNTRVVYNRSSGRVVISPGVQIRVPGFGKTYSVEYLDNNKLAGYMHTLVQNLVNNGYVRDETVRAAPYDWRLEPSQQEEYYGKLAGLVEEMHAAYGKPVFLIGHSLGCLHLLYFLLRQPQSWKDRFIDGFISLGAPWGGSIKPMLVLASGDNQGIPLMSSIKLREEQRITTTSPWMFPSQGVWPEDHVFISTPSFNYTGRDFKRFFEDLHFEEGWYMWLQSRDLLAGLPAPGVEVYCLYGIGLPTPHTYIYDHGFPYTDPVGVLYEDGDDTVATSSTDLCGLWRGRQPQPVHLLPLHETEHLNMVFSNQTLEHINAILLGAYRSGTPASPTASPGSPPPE
Description: Male New Zealand white rabbits (3.5-4.0 kg) are fasted for 12 hours prior to injection and remain fasted until after data for the final time point is taken. Rabbits have free access to water during this time. A catheter is inserted into the marginal ear vein and blood samples are collected into tubes containing 7.5% (K3) EDTA solution at the desired time points. A pre-injection blood sample is taken and the vesicle solution of either PI (n=4), or PC (n=2) or saline (n=1) is injected into the marginal ear vein. A sample of blood is removed at 10, 30 min, 1, 3, 6 and 24 h after the injection. All blood samples are placed on ice and then centrifuged at 3000 rpm for 15 min at 4° C. to separate the plasma. In order to ensure that lecithin:cholesterol acyl transferase (LCAT) is inhibited in the stored plasma, iodoacetamide (150 mM) is added to plasma samples as taught by Guerin et al. (1994). The effect of PI on LCAT activity is examined using plasma samples that are not treated with iodoacetamide. 400 μL aliquots of plasma for each time point are incubated for 30 min with 10 μCi of [^3H]-FC on filter paper discs (Dobiasova et al., 1991) at 37° C. and the reaction is terminated with the addition of 2 mL ethanol. Reaction products are extracted in hexane and the amount of [^3H] associated with CE and FC is determined by thin layer chromatography. […] However, endogenous LCAT activity is reduced to about 18% that of normal (PC injected control) after about 10 min post injection of PI. Also, PI injection reduces the fractional rate of cholesterol esterification from about 45% to about 8%, of initial values, per hour. […] To investigate the effect of PI on the production and transport of CE in the plasma, the amount of radioactive CE was measured at each time point (data not shown). […] Rather it appears that PI may modify intravascular cholesterol levels by mobilizing a cellular cholesterol pool.

[2] = test system: biliary FC output; experiment: Biliary FC output after injection of PI or PC vesicles containing [^3H]-FC; format: in vivo, rabbit; conditions: sacrificed at 30 min
Description: Rabbits are injected with 40 μmol PI or PC vesicles containing 400 μCi […]. Animals are sacrificed at 30 min, and bile is aspirated from the gall bladder. In addition the livers are harvested, homogenized and tissue radioactivity determined. Sterol excretion in the faeces is measured similarly except that faecal cholesterol levels are measured over a time period of 96 hours.
Referring now to FIG. 6, there is shown the effect of PI on biliary FC output after rabbits are injected with PI or PC vesicles containing [^3H]-FC. […] Without wishing to be bound by theory, PI may enhance the clearance of cholesterol from plasma and promote its uptake and accumulation in the liver. In addition, PI injection appears to be associated with an increase output of cholesterol into bile. About 20-fold enhanced output of cholesterol into bile is observed (FIG. 6).

[3] = test system: lipoprotein CE and FC in whole blood (red blood cells); experiment: Incubation of whole blood with PC or PI vesicles: lipoprotein CE and FC; format: cell-based, human
Description: Referring now to FIG. 4, there is graphically depicted the effect of PI or PC vesicles on lipoprotein CE and FC. Incubation of whole blood with PC vesicles results in a 60% increase in the CE content of the lipoproteins, while FC content is reduced by about 10%. […] Negatively charged phospholipids appeared to promote a reciprocal exchange of CE for FC between red blood cells and the lipoprotein particles. […] It has previously been taught that red blood cells cannot store CE and therefore utilize a membrane-bound CE hydrolase to maintain membrane FC levels. Without wishing to be bound by theory, the results therefore indicate that PI stimulates the degradation of lipoprotein CE.

[4] = test system: faecal cholesterol output; experiment: Faecal cholesterol excretion after PI or PC injection; format: in vivo, rabbit
Description: Rabbits are injected with 40 μmol PI or PC vesicles containing 400 μCi […]. Animals are sacrificed at 30 min, and bile is aspirated from the gall bladder. In addition the livers are harvested, homogenized and tissue radioactivity determined. Sterol excretion in the faeces is measured similarly except that faecal cholesterol levels are measured over a time period of 96 hours. Referring now to FIG. 7, there is graphically depicted the effect of PI injection associated with sterol excretion. […] PC injection into a rabbit had no effect on cholesterol excretion, while PI injection enhanced faecal cholesterol output by about 300% at 2 days post injection. The increase in cholesterol output returned to normal by about day 4.

[5] = test system: HDL, LDL and VLDL cholesterol; experiment: PI injections into hypercholesterolemic (cholesterol-fed) rabbits: lipoprotein cholesterol levels; format: in vivo, rabbit; conditions: 36 mg 2× daily for 7 days
Description: Referring now to FIG. 8, there is graphically depicted the effect of PI injection on lipoprotein cholesterol levels in hypercholesterolemic rabbits. Rabbits were fed a diet enriched in cholesterol for a period of 4 weeks to increase the levels of cholesterol in the LDL and VLDL particles in the bloodstream. One half of the study rabbits were then injected with 36 mg of PI 2× daily for 7 days. On day 7, plasma samples were drawn and lipoproteins were fractionated by size exclusion chromatography on two Superose 6 columns. Shown are gel filtration profiles for the different rabbit plasmas, which illustrate the levels of cholesterol in the various lipoprotein fractions. The untreated hypercholesterolemic rabbit plasma sample is shown to have high levels of LDL and VLDL cholesterol. PI injections caused a greater than 7-fold reduction in VLDL cholesterol and about a 2.5-fold reduction in LDL cholesterol levels over the 7 day period. […] PI therefore can be used to treat hypercholesterolemia and reduce plasma LDL and VLDL cholesterol levels.

endogenous LCAT activity, of normal (PC injected control) ([1]; about 10 min post injection): about 18%
LCAT activity returned to, of normal ([1]; after a period of time following vesicle injection): about 75%
effect on LCAT activity / cholesteryl esterification ([1]; after injection of vesicles): almost completely inhibits
less [3H]-CE in plasma than in the control ([1]; initial time points, vs PC injected rabbit): 85%
fractional rate of cholesterol esterification ([1]; of initial values, per hour, reduced from about 45%): about 8%
Compound: CCCCCCCC/C=C\CCCCCCCC(=O)O[C@H](COC(=O)CCCCCCCCCCCCCCC)COP(=O)(O)O[C@@H]1[C@H](O)[C@H](O)[C@@H](O)[C@H](O)[C@H]1O [PI, 1-palmitoyl-2-oleoyl phosphatidylinositol]
[^3H]-FC in plasma and liver in comparison to PC [2]: reduction of [^3H]-FC in plasma, and an elevation of [^3H]-FC in the liver
enhanced output of cholesterol into bile ([2]; in comparison to PC): About 20 fold
increase of lipoprotein FC levels [3]: about 40%
reduction of lipoprotein CE [3]: about 40%
faecal cholesterol output enhanced by ([4]; 2 days post injection): about 300%
increase in cholesterol output returned to normal by ([4]; rabbit, in vivo): ~4 days
effect on amount of cholesterol in the HDL particles [5]: slightly increased
reduction in LDL cholesterol levels [5]: ~2.5 fold
reduction in VLDL cholesterol [5]: greater than 7 fold
